Marks after values point to notes of the source that are not given here.
Tests used:
enzyme of SEQ ID NO:1 = assay: Screening of carbonyl-containing compounds with ammonia as amine source (specific activity, absorbance at 340 nm); assay type: biochemical, Mycobacterium smegmatis; conditions: 10 mM of carbonyl-containing compound, ammonia as amine source
Protocol: (§1) All the reactions were conducted at 25° C. in spectrophotometric cell (10 mm light path). To a mixture of ammonium formate buffer (2 M NH4HCO2/NH4OH, pH 9.5), NADH or NADPH (0.2 mM) and an appropriate amount of purified enzyme was added.

enzyme of SEQ ID NO:2 = assay: as above; assay type: biochemical, Cystobacter fuscus DSM 2262; conditions: 10 mM of carbonyl-containing compound, ammonia as amine source
Protocol: as §1

enzyme of SEQ ID NO:3 = assay: as above; assay type: biochemical, Microbacterium sp. MA1; conditions: 10 mM of carbonyl-containing compound, ammonia as amine source
Protocol: as §1

enzyme of SEQ ID NO:4 = assay: as above; assay type: biochemical, Aminomonas paucivorans DSM 12260; set-up: key to Detection of the expected compound, SEQ ID NO: 4: d: detected activity; nd: not detected activity; conditions: ammonia as amine source
Protocol: All the reactions were conducted at 25° C. in spectrophotometric cell (10 mm light path). To a mixture of ammonium formate buffer (2 M NH4HCO2/NH4OH, pH 9.5), NADH or NADPH (0.2 mM) and an appropriate amount of purified enzyme was added. Carbonyl-containing compound (5 or 10 mM) is then added to initiate the reaction (reaction final volume 100 μL). The initial slope measured at 340 nm determined the specific activity of the enzyme according to Beer-Lambert's law and the molar absorptivity of β-NADH (ϵ=6298 M^−1 cm^−1).

enzyme of SEQ ID NO:5 = assay: as above; assay type: biochemical, Mycobacterium vaccae ATCC 25954; conditions: mixture NADH/NADPH (0.1 mM each), 5 mM of carbonyl-containing compound
Protocol: All the reactions were conducted at 25° C. in spectrophotometric cell (10 mm light path). […] Carbonyl-containing compound (5 or 10 mM) is then added to initiate the reaction (reaction final volume 100 μL). The initial slope measured at 340 nm determined the specific activity of the enzyme according to Beer-Lambert's law and the molar absorptivity of β-NADH (ϵ=6298 M^−1 cm^−1).

PheDH-AmDH K77S/N276L = PheDH-AmDH K77S/N276L (Pseudobacillus badius, UniProt Q59224, K78S/N277L); conditions: prior-art engineered enzyme; cited from earlier work
PheDH-AmDH K77S/N276L, sequence (Q59224 whole entry K78S/N277L): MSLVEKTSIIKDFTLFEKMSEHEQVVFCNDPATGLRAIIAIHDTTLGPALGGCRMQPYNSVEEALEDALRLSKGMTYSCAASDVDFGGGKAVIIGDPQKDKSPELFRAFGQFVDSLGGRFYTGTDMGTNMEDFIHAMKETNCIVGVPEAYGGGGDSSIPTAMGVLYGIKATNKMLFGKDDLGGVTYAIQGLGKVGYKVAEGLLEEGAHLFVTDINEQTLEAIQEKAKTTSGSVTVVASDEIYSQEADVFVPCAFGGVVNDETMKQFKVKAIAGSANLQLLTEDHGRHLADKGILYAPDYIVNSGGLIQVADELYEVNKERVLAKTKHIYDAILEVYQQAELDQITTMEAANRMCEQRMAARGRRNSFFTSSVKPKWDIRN

[1] = 0.2 mM NADPH (best of NADH/NADPH)
[2] = 0.2 mM NADH (best of NADH/NADPH)
[3] = 0.2 mM NADPH (best of NADH/NADPH), listed as drawing 134

O=C1CCCC1
Specific activity, SEQ ID NO: 1 (enzyme of SEQ ID NO:1; [1]): 5.6^b mU.mg^-1 | Specific activity, SEQ ID NO: 2 (enzyme of SEQ ID NO:2; [1]): 24.2^b mU.mg^-1 | Specific activity, SEQ ID NO: 3 (enzyme of SEQ ID NO:3; [1]): 60.6^b mU.mg^-1

CC1CCCC1=O (centres unmarked)
Specific activity, SEQ ID NO: 1 (enzyme of SEQ ID NO:1; [1]): 65.2^b mU.mg^-1 | Specific activity, SEQ ID NO: 2 (enzyme of SEQ ID NO:2; [1]): 8.8^b mU.mg^-1 | Specific activity, SEQ ID NO: 3 (enzyme of SEQ ID NO:3; [1]): 90.3^b mU.mg^-1

O=C1CCCCC1 [drawing 120]
Specific activity, SEQ ID NO: 4 (enzyme of SEQ ID NO:4; 0.2 mM NADH (best of NADH/NADPH), 10 mM of carbonyl-containing compound): 9.82^a mU.mg^-1 | Detection of the expected compound, SEQ ID NO: 4 (enzyme of SEQ ID NO:4; pH 9.5, 25° C.): d

CC(=O)C(C)O (centres unmarked)
Specific activity, SEQ ID NO: 1 (enzyme of SEQ ID NO:1; [1]): 177.7^b mU.mg^-1 | Specific activity, SEQ ID NO: 2 (enzyme of SEQ ID NO:2; [1]): 42.4^b mU.mg^-1 | Specific activity, SEQ ID NO: 3 (enzyme of SEQ ID NO:3; [1]): 324.4^b mU.mg^-1

CCCC(C)=O [drawing 170]
Specific activity, SEQ ID NO: 5 (enzyme of SEQ ID NO:5): 6.1 mU.mg^-1

CCC(C)C=O (centres unmarked) [drawing 148]
Specific activity, SEQ ID NO: 1 (enzyme of SEQ ID NO:1; [1]): 75.2^b mU.mg^-1 | Specific activity, SEQ ID NO: 2 (enzyme of SEQ ID NO:2; [2]): 231.9^a mU.mg^-1 | Specific activity, SEQ ID NO: 3 (enzyme of SEQ ID NO:3; [2]): 159.4^a mU.mg^-1

CCCC(=O)CC
Specific activity, SEQ ID NO: 1 (enzyme of SEQ ID NO:1; [1]): 6.8^b mU.mg^-1 | Specific activity, SEQ ID NO: 3 (enzyme of SEQ ID NO:3; [1]): 28.1^b mU.mg^-1

CC1CCC(=O)C1 (centres unmarked)
Specific activity, SEQ ID NO: 1 (enzyme of SEQ ID NO:1; [1]): 7.7^b mU.mg^-1 | Specific activity, SEQ ID NO: 2 (enzyme of SEQ ID NO:2; [1]): 13.9^b mU.mg^-1 | Specific activity, SEQ ID NO: 3 (enzyme of SEQ ID NO:3; [1]): 23.3^b mU.mg^-1

CC1CCCC(=O)C1 (racemic) [3-methylcyclohexanone]
Specific activity, SEQ ID NO: 1 (enzyme of SEQ ID NO:1; [1]): 160.9 mU.mg^-1 | Specific activity, SEQ ID NO: 1 (enzyme of SEQ ID NO:1; [3]): 160.9^b mU.mg^-1 | Specific activity, SEQ ID NO: 2 (enzyme of SEQ ID NO:2; [1]): 37.0^b mU.mg^-1 | Specific activity, SEQ ID NO: 3 (enzyme of SEQ ID NO:3; [1]): 206.5 mU.mg^-1 | Specific activity, SEQ ID NO: 3 (enzyme of SEQ ID NO:3; [3]): 206.5^b mU.mg^-1 | specific activity of PheDH-AmDH K77S/N276L (PheDH-AmDH K77S/N276L): 41.1 mU·mg^−1

CCCCC=O [drawing 146]
Specific activity, SEQ ID NO: 1 (enzyme of SEQ ID NO:1; [1]): 26.8^b mU.mg^-1 | Specific activity, SEQ ID NO: 2 (enzyme of SEQ ID NO:2; [1]): 72.9^b mU.mg^-1 | Specific activity, SEQ ID NO: 3 (enzyme of SEQ ID NO:3; [1]): 57.8^b mU.mg^-1

CC1CCC(=O)CC1
Specific activity, SEQ ID NO: 1 (enzyme of SEQ ID NO:1; [2]): 85.2^a mU.mg^-1 | Specific activity, SEQ ID NO: 2 (enzyme of SEQ ID NO:2; [1]): 20.4^b mU.mg^-1 | Specific activity, SEQ ID NO: 3 (enzyme of SEQ ID NO:3; [1]): 170.1^b mU.mg^-1

CCCC(C)=O [drawing 142]
Specific activity, SEQ ID NO: 1 (enzyme of SEQ ID NO:1; [1]): 9.0^b mU.mg^-1 | Specific activity, SEQ ID NO: 2 (enzyme of SEQ ID NO:2; [1]): 6.4^b mU.mg^-1 | Specific activity, SEQ ID NO: 3 (enzyme of SEQ ID NO:3; [1]): 51.2^b mU.mg^-1
